Literature values in patent US20050181516A1, “Bioequivalence determination using expression profiling” (priority 2002, published 2005).

What was measured:
[1] = test system: contact dermatitis; details: topical application and oral route; cited from earlier work
[2] = test system: T cells and mast cells; details: in vitro; cited from earlier work

SMILES: CC[C@@H]1/C=C(\C)C[C@H](C)C[C@H](OC)[C@H]2O[C@@](O)(C(=O)C(=O)N3CCCC[C@H]3C(=O)O[C@H](/C(C)=C/[C@@H]3CC[C@H](Cl)[C@H](OC)C3)[C@H](C)[C@@H](O)CC1=O)[C@H](C)C[C@@H]2OC [ASM981, 33-Epichloro-33-desoxy-ascomycin]
- efficacy in animal models of contact dermatitis [1]: effective
- IgE promoter activity [2]: decrease
- T cell activation and proliferation [2]: decrease
- inflammatory mediators release [2]: impaired
